Several values for one entry are separate records, joined by “and”; a condition that tells them apart may be missing. Equal values may be shown once. Read-outs that look alike come from different tables or passages of the source. Positions of bridges follow the written chain, without caps; N, C: chain ends. Residues, ends and D or L forms follow the SMILES beside them.
Columns and labels:
[1] = tested on: Gonad intact young Cynomolgus monkeys; experiment: 6-week daily study in gonad intact young cynomolgus monkeys: % cortical porosity; format: in vivo; details: Tibial Mid-Diaphysis, 6 weeks
From the text: Comparative data regarding increase in cortical bone porosity in monkey subjects using Ostabolin C at a variety of doses and using the prior art PTHs 1-34 is shown below.

[2] = tested on: post-menopausal women with low bone mineral density; experiment: Phase II clinical study of subcutaneous Ostabolin-C in post-menopausal women with low BMD (BMD, bone markers, serum calcium, side effects); details: for Sitting HR / Headache / HyperCa > 2.65 / HyperCa > 2.75 / N + H / Nausea: 4 months; for Headache / HyperCa > 2.65 / HyperCa > 2.75 / N + H / Nausea: unit assumed
From the text: A four month Phase II clinical study was undertaken to investigate the safety, tolerability and efficacy of Ostabolin-C™ in post-menopausal women with low bone mineral density (BMD). […] The clinical protocol is a 16-week phase II randomized, double-blind, placebo-controlled, parallel group, dose finding study to investigate the safety, tolerability and efficacy of Ostabolin-C™ in post-menopausal women with low bone mineral density (BMD). In this study, 261 patients underwent four months of daily dosing of placebo and four active groups. The active groups included daily administration of Ostabolin-C™ in doses of 7.5, 15, 30, and 45 μg. Ostabolin-C™ is formulated as a clear, colorless liquid provided in pre-filled syringes and injected subcutaneously (SC). Subjects self-administer SC 0.1 mL injections of their assigned dose of Ostabolin-C™ 7.5, 15, 30, and 45 μg or placebo daily for 16 weeks in rotating quadrants of the abdomen. The subjects were post-menopausal women (for at least 5 years) with moderate osteoporosis.
The key endpoints for the study include change in mean BMD at the lumbar spine, as assessed by dual energy x-ray absorptiometry (DEXA), and measured by change from the Baseline visit. The Baseline visit is the first visit of the patient, before undergoing any treatment. Secondary efficacy endpoints include the following, as measured by change from Baseline visit:
DEXA: Bone formation and resorption markers: • Mean femoral neck BMD • Serum osteocalcin • Mean trochanter BMD • Serum amino terminal pro-peptide of type 1 pro-collagen (P1NP) • Mean total hip BMD • Mean radial BMD (distal and midshaft) • Bone specific alkaline phosphatase (BSAP) • Bone mineral content (BMC) • Serum C-telopeptide (CTx) • Bone area • Serum N-telopeptide (NTx)

[3] = Phase II pharmacokinetic evaluation of subcutaneous Ostabolin-C (Baseline and Week 12 subset); format: in vivo, human; parameters: AUC(0-24): unit: pg·h/mL
Method: The objective of this portion of the study was to evaluate the pharmacokinetics of Ostabolin-C under steady state conditions when given subcutaneously (sc) once a day to post-menopausal female subjects with low bone mineral density.
After Screening procedures and a 2-week placebo run-in phase, subjects were to be dosed once a day for 16 weeks with either Placebo or Ostabolin-C (7.5, 15, 30 or 45 μg). A subset of subjects from all treatment groups had blood collected for measurements of Ostabolin-C in order to determine PK parameters and compare them to prior studies.
The full study duration of the study was 22 weeks, which included a 6-week screening period involving a 2-week placebo run-in and then 16 weeks of treatment. The subset of subjects for this component of the study was treated the same as all other subjects with the exception of the additional blood collections at baseline and Week 12.
All of the values from the Placebo subject except one (Baseline 2 hour time-point) were below the assay level of detection (i.e., 10 pg/ml). With very limited exceptions, all values from Placebo subjects in prior trials have also been below the levels of detection. Thus, this one value was considered to be a laboratory error and PK parameters for this placebo subject were not calculated.
No samples were obtained for Pre-dose at either Baseline or Week 12. In all prior studies, pre-treatment values have been below the levels of detection and 24-hour time points at doses of 40 ug and below have been below the levels of detection. Thus, no observable values were anticipated and for calculating PK the pre-treatment values for Baseline visit were set to zero.
For pre-dose at Week 12, it was also anticipated that the values would be below the levels of detection based on prior studies and that the 24-hour post dose value would verify this. Only two 24-hour time-point values were above the level of detection; i.e. 24 hours post dosing at Baseline for Subject 030-003 and 24 hours post dosing at Week 12 for Subject 030-0004. The values of both of these 24-hour time-points were marginally above the assay level of detection. Also, both of these subjects had values below the levels of detection for both the 4 hour and 6 hour time-points after dosing on the prior day. Thus, these values are most likely artifacts and not real values. No valid 24 hour sample for subject 032-0001 at Week 12 was obtained. […] Thus, for calculating PK parameters, the Pre-dose values for Week 12 were also set to zero.
The pharmacokinetic parameters that were estimated at Baseline and Week 12 are as follows:
AUC values were estimated by a simple summation of trapezoidal areas from each time period. Data from each dose group were summarized using simple statistics on an Excel® spreadsheet; i.e., average (AVG) and Standard Deviation (STD). It should be noted that particularly with the lower doses and associated low blood levels and at late time points, those values just above versus just below the assay limits of detection can have a disproportionate impact to AUC calculations. This adds to that variability of the calculated numbers.

[4] = Baseline, 7.5 ug, individual subjects, in pg·h/mL
[5] = Baseline, 15 ug, individual subjects, in pg·h/mL
[6] = Baseline, 45 ug, individual subjects, in pg·h/mL
[7] = Week 12, 7.5 ug, individual subjects, in pg·h/mL
[8] = Week 12, 30 ug, individual subjects, in pg·h/mL

## CC[C@H](C)[C@H](NC(=O)[C@H](CCC(=O)O)NC(=O)[C@H](CO)NC(=O)[C@@H](NC(=O)[C@@H](N)CO)C(C)C)C(=O)N[C@@H](CCC(N)=O)C(=O)N[C@@H](CC(C)C)C(=O)N[C@@H](CCSC)C(=O)N[C@@H](Cc1c[nH]cn1)C(=O)N[C@@H](CC(N)=O)C(=O)N[C@@H](CC(C)C)C(=O)NCC(=O)N[C@@H](CCCCN)C(=O)N[C@@H](Cc1c[nH]cn1)C(=O)N[C@@H](CC(C)C)C(=O)N[C@@H](CC(N)=O)C(=O)N[C@@H](CO)C(=O)N[C@@H](CCSC)C(=O)N[C@@H](CCC(=O)O)C(=O)N[C@@H](CCCN=C(N)N)C(=O)N[C@H](C(=O)N[C@H]1CCC(=O)NCCCC[C@@H](C(=O)N[C@@H](CC(C)C)C(=O)N[C@@H](CC(C)C)C(=O)N[C@@H](CCC(N)=O)C(=O)N[C@@H](CC(=O)O)C(=O)N[C@H](C(N)=O)C(C)C)NC(=O)[C@H](CCCN=C(N)N)NC(=O)[C@H](CC(C)C)NC(=O)[C@H](Cc2c[nH]c3ccccc23)NC1=O)C(C)C [Ostabolin-C, [Leu^27]cyclo[Glu^22-Lys^26]-PTH-(1-31)-NH2] (H-SVSEIQLMHNLGKHLNSMERVEWLRKLLQDV-NH2; lactam 22-26)
[1]; F, 10 μg/kg/day
  % Cortical Porosity: 3.2 ± 0.97%
[1]; F, 25 μg/kg/day
  % Cortical Porosity: 4.0 ± 1.25%
[1]; F, 80 μg/kg/day
  % Cortical Porosity: 10.6 ± 0.35%
[1]; M, 10 μg/kg/day
  % Cortical Porosity: 3.7 ± 0.70%
[1]; M, 25 μg/kg/day
  % Cortical Porosity: 5.8 ± 1.82%
[1]; M, 80 μg/kg/day
  % Cortical Porosity: 16.4 ± 7.14 %
[2]; 30 μg (4 months)
  Mean [Ca]: 0.040 mmol/L
[2]; 30 μg doses (placebo 5%)
  hypercalcemia seen at least once, % of group: 5%
[2]; 30 ug
  Sitting HR: 2.4
  Headache: 19.6%
  HyperCa > 2.65: 4.5%
  HyperCa > 2.75: 2.3%
  N + H: 7.8%
  Nausea: 25.5%
[2]; 45 μg (4 months)
  Mean [Ca]: 0.070 mmol/L
[2]; 45 ug
  Sitting HR: 4.0
  Headache: 21.8%
  HyperCa > 2.65: 27.3%
  HyperCa > 2.75: 9.1%
  N + H: 12.7%
  Nausea: 29.1%
[2]; doses up to and including 30 μg (FIG. 14)
  percent of abnormal serum calcium: no notable difference from placebo
[3]; Baseline, 7.5 ug, individual subjects
  Tmax: 1.00
[3]; Baseline, 7.5 ug, individual subjects, in pg/mL
  Cmax: 27.75 and 33.15
[3]; [4]
  AUC(0-4): 11.71 and 16.25 and 88.35
  AUC(0-24): 11.71 and 16.25 and 99.67
[3]; Baseline, 15 ug, individual subjects, in pg/mL
  Cmax: 57.54 and 46.59
[3]; [5]
  AUC(0-4): 82.31 and 74.38
  AUC(0-24): 82.31 and 74.38
[3]; Baseline, 45 ug, individual subjects, in pg/mL
  Cmax: 114.54 and 233.33
[3]; [6]
  AUC(0-4): 344.39
  AUC(0-24): 370.47
[3]; Week 12, 7.5 ug, individual subjects, in pg/mL
  Cmax: 37.84 and 40.38
[3]; [7]
  AUC(0-4): 28.83 and 64.83
  AUC(0-24): 28.83 and 64.83
[3]; Week 12, 15 ug, individual subjects
  AUC(0-24): 164.36 and 54.29* and 110.80
[3]; Week 12, 15 ug, individual subjects, in pg/mL
  Cmax: 41.98 and 33.33 and 69.33
[3]; Week 12, 15 ug, individual subjects, in pg·h/mL
  AUC(0-4): 68.69 and 54.29 and 110.80
[3]; Week 12, 30 ug, individual subjects, in pg/mL
  Cmax: 46.75
[3]; [8]
  AUC(0-4): 142.45 and 70.73
  AUC(0-24): 214.03
[3]; after 12 weeks of dosing
  accumulation: no evidence of accumulation
[3]; female, human, blood, sc, 7.5 ug, Baseline, 7.5 ug, AVG, read-out: Tmax
  Tmax: 30 min
[3]; female, human, blood, sc, 7.5 ug, Dose 7.5, mean of Baseline and Week 12 data, read-out: AUC(0-4)
  AUC(0-t): 0.0365 ng·h/mL
[3]; female, human, blood, sc, 7.5 ug, Dose 7.5, mean of Baseline and Week 12 data, read-out: AUC(0-24)
  AUC(0-t): 0.0384 ng·h/mL
[3]; female, human, blood, sc, 7.5 ug, Dose 7.5, mean of Baseline and Week 12 data, read-out: Cmax
  Cmax: 0.0301 ng/mL
[3]; female, human, blood, sc, 7.5 ug, Dose 7.5, mean of Baseline and Week 12 data, read-out: Tmax
  Tmax: 22.8 min
[3]; female, human, blood, sc, 7.5 ug, Week 12, 7.5 ug, AVG, read-out: AUC(0-4)
  AUC(0-t): 0.0343 ng·h/mL
[3]; female, human, blood, sc, 7.5 ug, Week 12, 7.5 ug, AVG, read-out: AUC(0-24)
  AUC(0-t): 0.0343 ng·h/mL
[3]; female, human, blood, sc, 7.5 ug, Week 12, 7.5 ug, AVG, read-out: Cmax
  Cmax: 0.0331 ng/mL
[3]; female, human, blood, sc, 7.5 ug, Week 12, 7.5 ug, AVG, read-out: Tmax
  Tmax: 15 min
[3]; female, human, blood, sc, 15 ug, Baseline, 15 ug, AVG, read-out: Tmax
  Tmax: 19.8 min
